Assay: recombinant UMI read abundance after kanamycin selection (control-corrected) (log10(CPM+1)); higher = more efficient recombination; extreme values may be limits of the assay; sequences stand for … in AGTGCAGAGAAAATCGGCCAGTTTTCTCTGCCTGCAGTCCGCATGCCGTGGGACCCCTTGGGTTCTAACCTGTTGCCTAGATTTATGCAGCGGACTGCCTTTCTCCCAAAGTGATAAACCGG…AGGTTGGTTTCACT; site = the 11-nt donor
How it was run: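 Sequencing read counts were converted to CPM, averaged over two replicates and scaled by control-derived factors. Results are given as log10(CPM+1). The reads covered the donor–target junction of recombinant UMIs from a pooled Escherichia coli screen of donor and donor-binding-loop pairs for the IS621 bridge recombinase.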
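Note: IS621 bridge recombinase in Escherichia coli cells against a fixed T5 target plasmid.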

| Sequence | recombinant UMI read abundance (log10) |
| --- | --- |
| CCGTTATCATGGACCGGTTTTCCCGGTAATCCGTATTTGTG (site CCGTTACCTCA) | 0.00831 |
| CCGTTATCATGGACCGGTTTTCCCGGTAATCCGTATTTGTG (site CCGTTAGCTCA) | 0.0138 |
| CCGTTATCATGGACCGGTTTTCCCGGTAATCCGTATTTGTG (site CCGTTATCTCA) | 0.662 |
| CCGTTCTCATGGACCGGTTTTCCCGGTAATCCGTATTTGGA (site CCGTTCTCTTC) | 0 |
| CCGTTTACATGGACCGGTTTTCCCGGTAATCCGTATTTGGT (site CCGTTTACTAA) | 0.00739 |
| CCGTTTACATGGACCGGTTTTCCCGGTAATCCGTATTTGGT (site CCGTTTACTAC) | 0.279 |
| CCGTTTACATGGACCGGTTTTCCCGGTAATCCGTATTTGGT (site CCGTTTACTAG) | 0 |
| CCGTTTACATGGACCGGTTTTCCCGGTAATCCGTATTTGGT (site CCGTTTACTAT) | 0 |
| CCGTTTCCATGGACCGGTTTTCCCGGTAATCCGTATTTGAC (site CCGTTTCCTGT) | 0 |
| CCGTTTTCATGGACCGGTTTTCCCGGTAATCCGTATTTGCT (site CCGTTTACTAG) | 0 |
| CCGTTTTCATGGACCGGTTTTCCCGGTAATCCGTATTTGCT (site CCGTTTCCTAG) | 0.00608 |
| CCGTTTTCATGGACCGGTTTTCCCGGTAATCCGTATTTGCT (site CCGTTTGCTAG) | 0 |
| CCGTTTTCATGGACCGGTTTTCCCGGTAATCCGTATTTGCT (site CCGTTTTCTAG) | 0 |
| CCTAAAGCATGGACCGGTTTTCCCGGTAATCCGTATTTGAT (site ACTAAAGCTAT) | 0 |
| CCTAAAGCATGGACCGGTTTTCCCGGTAATCCGTATTTGAT (site CATAAAGCTAT) | 0 |
| CCTAAAGCATGGACCGGTTTTCCCGGTAATCCGTATTTGAT (site CCAAAAGCTAT) | 0 |
| CCTAAAGCATGGACCGGTTTTCCCGGTAATCCGTATTTGAT (site CCCAAAGCTAT) | 0.0148 |
| CCTAAAGCATGGACCGGTTTTCCCGGTAATCCGTATTTGAT (site CCGAAAGCTAT) | 0 |
| CCTAAAGCATGGACCGGTTTTCCCGGTAATCCGTATTTGAT (site CCTAAAACTAT) | 0 |
| CCTAAAGCATGGACCGGTTTTCCCGGTAATCCGTATTTGAT (site CCTAAACCTAT) | 0.00391 |
| CCTAAAGCATGGACCGGTTTTCCCGGTAATCCGTATTTGAT (site CCTAAAGCTAA) | 0 |
| CCTAAAGCATGGACCGGTTTTCCCGGTAATCCGTATTTGAT (site CCTAAAGCTAC) | 0 |
| CCTAAAGCATGGACCGGTTTTCCCGGTAATCCGTATTTGAT (site CCTAAAGCTAG) | 0 |

| Sequence | recombinant UMI read abundance (log10) |
| --- | --- |
| CCTAAAGCATGGACCGGTTTTCCCGGTAATCCGTATTTGAT (site CCTAAAGCTAT) | 0.14 |
| CCTAAAGCATGGACCGGTTTTCCCGGTAATCCGTATTTGAT (site CCTAAAGCTCT) | 0.00392 |
| CCTAAAGCATGGACCGGTTTTCCCGGTAATCCGTATTTGAT (site CCTAAAGCTGT) | 0 |
| CCTAAAGCATGGACCGGTTTTCCCGGTAATCCGTATTTGAT (site CCTAAAGCTTT) | 0 |
| CCTAAAGCATGGACCGGTTTTCCCGGTAATCCGTATTTGAT (site CCTAAATCTAT) | 0 |
| CCTAAAGCATGGACCGGTTTTCCCGGTAATCCGTATTTGAT (site CCTAACGCTAT) | 0.035 |
| CCTAAAGCATGGACCGGTTTTCCCGGTAATCCGTATTTGAT (site CCTAAGGCTAT) | 0 |
| CCTAAAGCATGGACCGGTTTTCCCGGTAATCCGTATTTGAT (site CCTAATGCTAT) | 0.00544 |
| CCTAAAGCATGGACCGGTTTTCCCGGTAATCCGTATTTGAT (site CCTACAGCTAT) | 0.0037 |
| CCTAAAGCATGGACCGGTTTTCCCGGTAATCCGTATTTGAT (site CCTAGAGCTAT) | 0.00698 |
| CCTAAAGCATGGACCGGTTTTCCCGGTAATCCGTATTTGAT (site CCTATAGCTAT) | 0.00347 |
| CCTAAAGCATGGACCGGTTTTCCCGGTAATCCGTATTTGAT (site CCTCAAGCTAT) | 0.00248 |
| CCTAAAGCATGGACCGGTTTTCCCGGTAATCCGTATTTGAT (site CCTGAAGCTAT) | 0 |
| CCTAAAGCATGGACCGGTTTTCCCGGTAATCCGTATTTGAT (site CCTTAAGCTAT) | 0.0074 |
| CCTAAAGCATGGACCGGTTTTCCCGGTAATCCGTATTTGAT (site CGTAAAGCTAT) | 0 |
| CCTAAAGCATGGACCGGTTTTCCCGGTAATCCGTATTTGAT (site CTTAAAGCTAT) | 0.00697 |
| CCTAAAGCATGGACCGGTTTTCCCGGTAATCCGTATTTGAT (site GCTAAAGCTAT) | 0 |
| CCTAAAGCATGGACCGGTTTTCCCGGTAATCCGTATTTGAT (site TCTAAAGCTAT) | 0.00543 |
| CCTAAAGCATGGACCGGTTTTCCCGGTAATCCGTATTTGGA (site CCTAAAGCTTC) | 0.0116 |
| CCTAAGACATGGACCGGTTTTCCCGGTAATCCGTATTTGGC (site CCTAAAACTGC) | 0 |
| CCTAAGACATGGACCGGTTTTCCCGGTAATCCGTATTTGGC (site CCTAACACTGC) | 0 |
| CCTAAGACATGGACCGGTTTTCCCGGTAATCCGTATTTGGC (site CCTAAGACTGC) | 0 |
| CCTAAGACATGGACCGGTTTTCCCGGTAATCCGTATTTGGC (site CCTAATACTGC) | 0 |

| Sequence | recombinant UMI read abundance (log10) |
| --- | --- |
| CCTAAGGCATGGACCGGTTTTCCCGGTAATCCGTATTTGAT (site CCTAAAGCTAT) | 0 |
| CCTAAGGCATGGACCGGTTTTCCCGGTAATCCGTATTTGAT (site CCTAACGCTAT) | 0.00671 |
| CCTAAGGCATGGACCGGTTTTCCCGGTAATCCGTATTTGAT (site CCTAAGGCTAT) | 0.0186 |
| CCTAAGGCATGGACCGGTTTTCCCGGTAATCCGTATTTGAT (site CCTAATGCTAT) | 0 |
| CCTAATACATGGACCGGTTTTCCCGGTAATCCGTATTTGGC (site ACTAATACTGC) | 0 |
| CCTAATACATGGACCGGTTTTCCCGGTAATCCGTATTTGGC (site CATAATACTGC) | 0 |
| CCTAATACATGGACCGGTTTTCCCGGTAATCCGTATTTGGC (site CCAAATACTGC) | 0 |
| CCTAATACATGGACCGGTTTTCCCGGTAATCCGTATTTGGC (site CCCAATACTGC) | 0 |
| CCTAATACATGGACCGGTTTTCCCGGTAATCCGTATTTGGC (site CCGAATACTGC) | 0 |
| CCTAATACATGGACCGGTTTTCCCGGTAATCCGTATTTGGC (site CCTAAAACTGC) | 0.00801 |
| CCTAATACATGGACCGGTTTTCCCGGTAATCCGTATTTGGC (site CCTAACACTGC) | 0 |
| CCTAATACATGGACCGGTTTTCCCGGTAATCCGTATTTGGC (site CCTAAGACTGC) | 0 |
| CCTAATACATGGACCGGTTTTCCCGGTAATCCGTATTTGGC (site CCTAATACTAC) | 0.0181 |
| CCTAATACATGGACCGGTTTTCCCGGTAATCCGTATTTGGC (site CCTAATACTCC) | 0.00819 |
| CCTAATACATGGACCGGTTTTCCCGGTAATCCGTATTTGGC (site CCTAATACTGA) | 0.0391 |
| CCTAATACATGGACCGGTTTTCCCGGTAATCCGTATTTGGC (site CCTAATACTGC) | 0 |
| CCTAATACATGGACCGGTTTTCCCGGTAATCCGTATTTGGC (site CCTAATACTGG) | 0 |
| CCTAATACATGGACCGGTTTTCCCGGTAATCCGTATTTGGC (site CCTAATACTGT) | 0 |
| CCTAATACATGGACCGGTTTTCCCGGTAATCCGTATTTGGC (site CCTAATACTTC) | 0.00574 |
| CCTAATACATGGACCGGTTTTCCCGGTAATCCGTATTTGGC (site CCTAATCCTGC) | 0.00798 |
| CCTAATACATGGACCGGTTTTCCCGGTAATCCGTATTTGGC (site CCTAATGCTGC) | 0 |
| CCTAATACATGGACCGGTTTTCCCGGTAATCCGTATTTGGC (site CCTAATTCTGC) | 0 |

Reference: the supplement of paper PMC11208160
